Reference: ChEMBL document CHEMBL3864139, “Phenylindenone isomers as divergent modulators of p38α MAP kinase” (Bioorg Med Chem Lett, 2016)
Active and inactive are the calls of the source. No cut-off for these calls is given here.

Columns and labels:
[1] = biological target: T1, Mitogen-activated protein kinase 14 (Homo sapiens, UniProt Q16539); experiment: Inhibition of human recombinant full length GST-tagged MAPK14 phosphorylation expressed in Escherichia coli in presence of 100 uM of ATP by direct Z-LITE assay
T1 sequence (Q16539 whole entry): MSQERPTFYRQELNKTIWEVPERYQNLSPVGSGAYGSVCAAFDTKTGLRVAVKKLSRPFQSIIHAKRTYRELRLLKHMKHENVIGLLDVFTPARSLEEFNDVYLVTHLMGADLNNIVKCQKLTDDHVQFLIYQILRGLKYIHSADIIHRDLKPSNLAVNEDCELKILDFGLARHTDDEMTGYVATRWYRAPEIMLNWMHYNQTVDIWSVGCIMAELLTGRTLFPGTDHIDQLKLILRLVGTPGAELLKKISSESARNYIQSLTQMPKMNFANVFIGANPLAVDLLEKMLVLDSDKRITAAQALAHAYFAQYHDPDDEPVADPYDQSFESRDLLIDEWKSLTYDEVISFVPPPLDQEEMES

[2] = biological target: T1, Mitogen-activated protein kinase 14; experiment: Inhibition of human recombinant full length GST-tagged MAPK14 phosphorylation expressed in Escherichia coli in presence of 500 uM of ATP by direct Z-LITE assay
[3] = biological target: T1, Mitogen-activated protein kinase 14; experiment: Activation of human recombinant full length GST-tagged MAPK14 expressed in Escherichia coli assessed as increase in MAPK14 phosphorylation at 10 to 10000 nM in presence of 500 uM of ATP by direct Z-LITE assay
[4] = biological target: T1, Mitogen-activated protein kinase 14; experiment: Activation of human recombinant full length GST-tagged MAPK14 expressed in Escherichia coli assessed as increase in MAPK14 phosphorylation at 10 uM in presence of 500 uM of ATP by direct Z-LITE assay relative to control

| SMILES | IC50 [1] [nM] | IC50 [2] [nM] | Activity [3] | Activity [4] [%] |
| --- | --- | --- | --- | --- |
| O=C1C(c2ccc(F)cc2)=C(c2ccncc2)c2ccccc21 | 899 | 1350 | – | – |
| O=C1C(c2ccncc2)=C(c2ccc(F)cc2)c2ccccc21 | – | – | Active | 40 to 50 |
